Here are results for one molecule from BindingDB's records for doi:10.1124/jpet.103.058636 (National Institutes of Health, 2004).

The structures appear in SMILES notation.

The target in this assay is Sodium-dependent serotonin transporter (Mus musculus, UniProt Q60857).
Sequence of Sodium-dependent serotonin transporter (Q60857 whole entry): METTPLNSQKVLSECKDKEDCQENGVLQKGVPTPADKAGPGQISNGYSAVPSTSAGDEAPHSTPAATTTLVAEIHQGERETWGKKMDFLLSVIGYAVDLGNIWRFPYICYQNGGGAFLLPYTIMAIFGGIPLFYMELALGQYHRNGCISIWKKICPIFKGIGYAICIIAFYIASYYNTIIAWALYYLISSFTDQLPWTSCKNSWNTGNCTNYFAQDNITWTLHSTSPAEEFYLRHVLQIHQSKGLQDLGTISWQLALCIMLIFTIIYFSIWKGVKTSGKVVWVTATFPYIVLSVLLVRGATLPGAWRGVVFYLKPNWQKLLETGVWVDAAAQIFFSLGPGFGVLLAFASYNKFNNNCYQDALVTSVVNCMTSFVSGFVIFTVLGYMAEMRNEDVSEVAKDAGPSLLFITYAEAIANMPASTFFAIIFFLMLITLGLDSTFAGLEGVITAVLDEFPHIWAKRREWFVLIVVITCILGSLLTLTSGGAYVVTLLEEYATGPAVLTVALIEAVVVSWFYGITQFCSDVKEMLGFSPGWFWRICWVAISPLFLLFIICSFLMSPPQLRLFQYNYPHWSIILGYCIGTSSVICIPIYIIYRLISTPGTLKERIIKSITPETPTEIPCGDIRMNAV

Broadly, the Ki is a dissociation constant, usually derived from enzyme kinetics or from competition with a known ligand. Lower therefore signals higher affinity. `CCNC(C)Cc1cccc(C(F)(F)F)c1` (stereo unspecified) [NSC_3337] had a Ki of 7.05 µM.
